Results on six molecules are retold here after patent US20240382499A1, “INDUCERS OF SENESCENCE, IN COMBINATION WITH A SELECTIVE DEATH RECEPTOR 5 (DR5) AGONIST, FOR USE IN A METHOD OF TREATING CANCER” (Stichting Het Nederlands Kanker Instituut-Antoni van …, priority 2021, published 2024).

The test system of one assay is TNFRSF10B (DR5), DR4. Nature of the assay: RNA sequencing of a senescent cell line panel, death receptor expression. The assay is classed as cell-based. The note with it: data not shown. The method, then:
RNA sequencing was performed on A549 cells treated with 0.5 alisertib μM for 1 week, and followed by gene set enrichment analysis (GSEA) of alisertib treated cells versus untreated control for multiple independent NF-KB signaling gene sets. (B) Real-time PCR analysis of DR4, DR5, cFLIP, TRAIL in A549 cells treated with 0.5 μM alisertib, 100 nM CFI-400945 and 2 μM Etoposide. GAPDH served as control.

A further assay concerns Hep1 liver cancer cells. As to the kind of experiment: Tumor growth of Hep1 xenografts in Balb/c nude mice. The assay is classed as in vivo. The settings on record: Hep1 xenograft; 30 mg/kg alisertib oral gavage, 5 μg conatumumab intraperitoneal, week days. As to the method: (§1) FIG. 4: (A) Tumor growth of Hep1 parental cells in the flanks of Balb/c nude mice subcutaneously injected with 1*10^7 cells. When tumors reached approximately 200 mm^3, assigned to either control, 30 mg/kg alisertib (oral gavage), 5 μg conatumumab (intraperitoneal injection) and the combination. The drugs were administrated during week days and suspended during the weekend. (B) Tumor growth of A549 parental cells in the flanks of Balb/c nude mice subcutaneously injected with 5*10^6 cells. When tumors reached approximately 200 mm3, assigned to either control, 30 mg/kg alisertib (oral gavage), 10 μg conatumumab (intraperitoneal injection) and the combination. The drugs were administrated during week days and suspended during the weekend. (C-E) Cell viability was assessed by colony formation assay in the A549 and Hep1 cells. The cells were firstly treated with different senescence inducers for 7 days to induce senescence. Afterwards, the senescent cells were suspended from the senescence inducers then re-seeded in a 12-well plate and switched to conatumumab or Lz-TRAIL treatment for 5 days. Proliferating cells were taken as a control. At the end of assay, cells were fixed, stained, and photographed.
(§2) To test the treatment in vivo, we engrafted Hep1 liver cancer cells and A549 lung cancer cells into immunodeficient nude mice. […]

For the next assay, the system named is A549 lung cancer cells. As to the kind of experiment: Tumor growth of A549 xenografts in Balb/c nude mice. The assay is classed as in vivo. The settings on record: A549 xenograft; 30 mg/kg alisertib oral gavage, 10 μg conatumumab intraperitoneal, week days. The method, then: as §1, §2
For assay [1], the system named is proliferating and senescent A549 and Hep1 cells. Nature of the assay: Colony formation of proliferating and therapy-induced senescent A549 and Hep1 cells with NEO2734 and conatumumab. The assay is classed as cell-based. As to the method:
FIG. 8: Cell viability was assessed by colony formation assay using low doses of NEO2734 and conatumab. (A) Cell viability was assessed by a colony formation assay using low dose 0.25 μM of NEO2734 and 0.125 μg/ml conatumumab on Hep1 cells made senescent by one-week treatment of 0.5 μM alisertib, 1 μM barasertib, 50 nM CFI-400945 or 2 μM Etoposide. (B) Colony formation using low dose 0.25 μM of NEO2734 and 0.125 μg/ml conatumumab on Hep1, 0.25 μM of NEO2734 and 1 μg/ml conatumumab on A549 cells made senescent by one-week treatment of different senescence inducers (0.5 μM PF-06873600, 100 nM doxorubicin, 1 μM TAS-119 or combination of 5 nM trametinib plus 0.5 μM palbociclib.
Cells were treated with 0.5 μM alisertib for 7 days to induce senescence. These cells were seeded into 12 well plates. After 24 hours, the cells were treated with 0.5 μM NEO 2734 and indicated doses of conatumumab for 96 hours. Cells were fixed with 4% paraformaldehyde after 96 hours of drug treatment. The plates were stained with 2 mL 0.5% (w/v) crystal violet in H2O and photographed. Further, colony formation was investigated using 0.25 μM of NEO2734 and 0.125 μg/ml conatumumab on Hep1 cells made senescent by one-week treatment of 0.5 μM alisertib, 1 μM barasertib, 50 nM CFI-400945 or 2 μM Etoposide. Furthermore, colony formation was investigated using 0.25 μM of NEO2734 and 1 μg/ml conatumumab on A549 cells made senescent by one-week treatment of different senescence inducers, namely 0.5 μM PF-06873600, 100 nM doxorubicin or combination of 5 nM trametinib plus 0.5 μM palbociclib. Doxorubicin, PF-06873600, palbociclib and trametinib were purchased from Selleckchem (Houston, TX, USA).

For another assay, the system named is cFLIP (CFLAR). Nature of the assay: RNA sequencing of NEO2734 treated cells. The assay is classed as cell-based. The note with it: 0.5 μM NEO2734 for 1 week; PC9, TFK, EGI and Hep1. The method, then:
RNA sequencing was performed on PC9, Hep1, EGI and TFK cells treated with 0.5 μM NEO2734 for 1 week. The expression changes of cFLIP and TNFRSF10B (DR5) were plotted.
To investigate the mechanism of this synergy effect from this drug combination, RNA sequencing was performed on NEO2734 treated cells (using four independent cell models PC9, TFK, EGI and Hep1) to identify genes that might be critical for the DR5 signaling pathway. […] This might explain why BRD2 inhibition may enhance the responsiveness of conatumumab.

Assay [2] deals with PC9, TFK, EGI and Hep 1 cancer cells, and BJ and Rpe1 primary cells. Nature of the assay: Dose-response curves (cell titer blue) for NEO2734 in the presence of conatumumab. The assay is classed as cell-based, human. The note with it: 0.5 microgram/ml conatumumab, 96 hours. The source says:
FIG. 6: (A) Dose-response curves determined by cell viability using cell titer blue for NEO2734 in the presence of 0.5 microgram/ml conatumumab. Shown are dose response curves for PC9, TFK, EGI and Hep 1 cancer cells, and BJ and Rpe1 primary cells. (B) RNA sequencing results.
PC9 human lung cancer cells, Panc1 human pancreatic cancer cell line of ductal cell origin, Hep3B human epithelial hepatoma cells, H1975 human epithelial lung cancer cells, TFK bile duct cancer cells, EGI bile duct cancer cells, BJ human foreskin fibroblast cells and Rpe1 human retina pigmented epithelial cells were obtained from ATCC.
Cells were seeded into 384 well plates. Drugs were added after 24 hours.
To validate this finding, a BRD2 inhibitor, NEO2734, was used to combine with a DR5 activation antibody (conatumumab) and to test the combination in multiple cancer models, including a pancreatic cancer line of ductal cell origin Panc1, two epithelial hepatoma cell lines Hep3B and Hep1, two bile duct cancer cell lines TFK and EGI, two epithelial cancer lines PC9 and H1975. In addition, two primary cell lines BJ and Rpe1 were used to determine whether this drug combination would be less harmful to healthy cells.
In general terms: Alamar Blue is a resazurin reagent that responds to reducing activity.

Assay [3] relates to Alisertib induced senescent and proliferating A549, H2030, H358, HCT116, MDA-MB-231 and MCF-7 cells. As to the kind of experiment: Viability of alisertib-induced senescent versus proliferating cancer cell line panel (CellTiter-Blue dose response, Incucyte, colony formation). The assay is classed as cell-based. As to the method:
FIG. 2: (A) Western blot analysis of DR4, DR5, cFLIP in A549 cells treated with different senescence inducers for 1 week. VINC served as loading control. (B) A549 cells were firstly treated with 0.5 μM alisertib for 7 days to induce senescence. Afterwards, the senescent cells were suspended from alisertib, re-seeded in a 96-well plate then switched to 200 ng/ml recombinant Lz-TRAIL. The growth curves were measured by Incucyte cell proliferation assay. (C) Alisertib induced senescent and proliferating A549, H2030, H358, HCT116, MDA-MB-231 and MCF-7 cells were seeded into a 384-well plate and treated with Lz-TRAIL for 120 hrs. Cell viability were measured using CellTiter-Blue to generate dose response curve. (D) Senescence associated beta-galactosidase (SA-β-gal) staining in a cell line panel after treated with 0.5 μM alisertib for one week. (E) Cell viability […] was assessed by colony formation assay in the cell line panel. The cells were firstly treated with 0.5 μM alisertib for 7 days to induce senescence. […]
FIG. 3: (A) Human NF-kB pathway protein array analysis on the senescent A549 cells generated with 0.5 μM alisertib for 7 days. […] (C) Cell viability was assessed by colony formation assay in the A549 cells lentiviral shRNAs against DR4 or DR5. […] Cell viability were measured using CellTiter-Blue to generate dose response curve.

In the next assay the test system is PC9, Hep1 and A549. The note with it: 0.5 microgram/ml conatumumab. As to the method:
FIG. 7: (A) Cell viability for the BRD2 inhibitor iBET in the presence of 0.5 microgram/ml conatumumab. […] Cells were seeded into 384 well plates. Drugs were added after 24 hours. Cell viability was measured using cell titer blue after 96 hours of drug treatment.

For the next assay, the system named is senescent cells. Nature of the assay: Killing of senescent cells by conatumumab in vitro, time. The assay is classed as cell-based.
Assay [4] deals with senescent A549 and Hep1 cells. As to the kind of experiment: Colony formation of A549 and Hep1 cells made senescent with other senescence inducers. The assay is classed as cell-based. The note with it: A549 and Hep1 made senescent with PLk4 inhibitor, etoposide and barasertib; treatment 5 days. As to the method: as §1

As to `COc1cc(Nc2ncc3c(n2)-c2ccc(Cl)cc2C(c2c(F)cccc2OC)=NC3)ccc1C(=O)O` [alisertib, 4-[[9-chloro-7-(2-fluoro-6-methoxyphenyl)-5H-pyrimido[5,4-d][2]benzazepin-2-yl]amino]-2-methoxybenzoic acid], in the assay with TNFRSF10B (DR5), DR4, the “DR4 expression in induced senescent cells” value is recorded as “not DR4” and the “TNFRSF10B (DR5) expression in induced senescent cells” value was “upregulated”. In addition, the tumor growth entry with Hep1 liver cancer cells was “limited tumor growth inhibition”. Moreover, the tumor growth result with A549 lung cancer cells is listed as “limited tumor growth inhibition”.
As for `COc1cc([C@@H]2c3cc4c(cc3[C@@H](O[C@@H]3O[C@@H]5CO[C@@H](C)O[C@H]5[C@H](O)[C@H]3O)[C@H]3COC(=O)[C@H]23)OCO4)cc(OC)c1O` [etoposide, (5S,5aR,8aR,9R)-5-[[(2R,4aR,6R,7R,8R,8aS)-7,8-dihydroxy-2-methyl-4,4a,6,7,8,8a-hexahydropyrano[3,2-d][1,3]dioxin-6-yl]oxy]-9-(4-hydroxy-3,5-dimethoxyphenyl)-5a,6,8a,9-tetrahydro-5H-[2]benzofuro[6,5-f][1,3]benzodioxol-8-one], in the assay with TNFRSF10B (DR5), DR4, the “DR4 expression in induced senescent cells” value is reported as “not DR4” and the “TNFRSF10B (DR5) expression in induced senescent cells” value is “upregulated”.
For the molecule `Cc1cc(-c2ccc3nc(C4CCOCC4)n(CCOC(F)(F)F)c3c2)cn(C)c1=O` [NEO2734, 1,3-dimethyl-5-[2-(oxan-4-yl)-3-[2-(trifluoromethoxy)ethyl]benzimidazol-5-yl]pyridin-2-one], the “effect on senolytic effect of DR5 activation (colony formation)” value in assay [1] (alisertib-induced senescent and proliferating A549 (1 μg/ml conatumumab) and Hep1 (0.125 μg/ml conatumumab)) is “improve the senolytic effect of DR5 activation”. Moreover, the “cFLIP (CFLAR) expression change” value in the assay on cFLIP (CFLAR) is “highly down-regulated”. In addition, the “effect on conatumumab responsiveness in primary cells (cell viability)” value in [2] (BJ and Rpe1 primary cells) is “not in primary cells”. The “effect on conatumumab responsiveness in cancer cells (cell viability)” value in [2] (cancer cells) is “enhance the conatumumab responsiveness”.
On to `CC1(C)CCC(c2ccc(Cl)cc2)=C(CN2CCN(c3ccc(C(=O)NS(=O)(=O)c4ccc(N[C@H](CCN5CCOCC5)CSc5ccccc5)c(S(=O)(=O)C(F)(F)F)c4)cc3)CC2)C1` [ABT-263], for which the “senolytic effect in cell line panel (colony formation), TRAIL compared with ABT-263” value in assay [3] (alisertib-induced senescent cells, 12-well plate) is on record as “resistant”.
As to iBET, the “effect on conatumumab responsiveness (cell viability)” value with PC9, Hep1 and A549 is “efficiently enhance the responsiveness of conatumumab”.
Turning to “conatumumab: DR5 agonistic IgG1 antibody; purchased from Creative Biolabs, or generated by expression of SEQ 1 and SEQ 3”, the “time in which senescent cells are killed” value with senescent cells came out at 24 h. Moreover, the tumor growth entry in the assay on Hep1 liver cancer cells and with A549 lung cancer cells was “limited tumor growth inhibition” in each case. Besides, the “dosage that will not lead to a significant impact on alisertib induced senescent cells” value in assay [1] (A549, titration) was 1 µg/mL; in assay [1] (Hep1, titration), 0.125 µg/mL. Besides, the “killing of senescent versus proliferating cells (cell viability)” value in assay [3] (alisertib 0.5 μM 7 days induced senescence, treatment 120 hrs, lung, breast, colon and liver cancer models) is given as “selective killing of senescent cells”. Further, in [4], the “senolytic effect (colony formation)” value is reported as “strong senolytic effect”.
